According to the supplement of paper PMC11208160:

Assay: recombinant barcode read abundance after kanamycin selection (control-corrected) (log10(CPM+1)); higher = more efficient recombination; sequences stand for … in AGTGCAGAGAAAATCGGCCAGTTTTCTCTGCCTGCAGTCCGCATGCCGT…AGATTTATGCAGCGGACTGCCTTTCTCCCAAAGTGATAAACCGGACAGTATCATGGACCGGTTTTCCCGGTAATCCGTATTTGCAAGGTTGGTTTCACT; site = the 11-nt target
In short: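 This pooled E. coli screen matched targets with IS621 bridge RNA target-binding loops. Plating was done in duplicate on chloramphenicol/ampicillin LB agar as a control and on chloramphenicol/ampicillin/kanamycin plus 0.1 mM IPTG. Recombination efficiency reflects barcode counts at recombinant junctions as counts per million, averaged and control-corrected. The figures are log10(CPM+1).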
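Further: IS621 recombinase and bridge RNA in Escherichia coli cells.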

Sequence: CTGGTGCCTTGGGTTCTAACCTGTTGCCT (site CGGGTGCCTAG)
- recombinant barcode read abundance (log10): 0.248

Sequence: CTGGTGCCTTGGGTTCTAACCTGTTGCCT (site CTGGTGCCTAG)
- recombinant barcode read abundance (log10): 1.46

Sequence: CTGTAGCCTTGGGTTCTAACCTGTTGCTG (site CTGTAGCCTCA)
- recombinant barcode read abundance (log10): 0.578

Sequence: CTGTAGCCTTGGGTTCTAACCTGTTGCTG (site CTGTAGGCTTA)
- recombinant barcode read abundance (log10): 0.0376

Sequence: CTGTAGGCTTGGGTTCTAACCTGTTGCTA (site CTGTAGCCTCA)
- recombinant barcode read abundance (log10): 0.136

Sequence: CTGTAGGCTTGGGTTCTAACCTGTTGCTA (site CTGTAGGCTTA)
- recombinant barcode read abundance (log10): 0.716

Sequence: CTGTCGACTTGGGTTCTAACCTGTTGCCT (site CTATCCACTAG)
- recombinant barcode read abundance (log10): 0.0154

Sequence: CTGTCGACTTGGGTTCTAACCTGTTGCCT (site CTGTCGACTAG)
- recombinant barcode read abundance (log10): 0.286

Sequence: CTGTCTACTTGGGTTCTAACCTGTTGCCT (site CAGTCTACTAG)
- recombinant barcode read abundance (log10): 0.0294

Sequence: CTGTCTACTTGGGTTCTAACCTGTTGCCT (site CCGTCTACTAG)
- recombinant barcode read abundance (log10): 0.197

Sequence: CTGTCTACTTGGGTTCTAACCTGTTGCCT (site CGGTCTACTAG)
- recombinant barcode read abundance (log10): 0.134

Sequence: CTGTCTACTTGGGTTCTAACCTGTTGCCT (site CTGTCTACTAG)
- recombinant barcode read abundance (log10): 0.0179

Sequence: CTTACTACTTGGGTTCTAACCTGTTGCCT (site ATCACTACTAG)
- recombinant barcode read abundance (log10): 0.105

Sequence: CTTACTACTTGGGTTCTAACCTGTTGCCT (site CTTACTACTAG)
- recombinant barcode read abundance (log10): 0.126

Sequence: CTTAGGACTTGGGTTCTAACCTGTTGCCT (site CTTAGGACTAG)
- recombinant barcode read abundance (log10): 0.205

Sequence: CTTAGGACTTGGGTTCTAACCTGTTGCCT (site CTTAGGACTCG)
- recombinant barcode read abundance (log10): 0.0406

Sequence: CTTAGGACTTGGGTTCTAACCTGTTGCCT (site CTTAGGACTGG)
- recombinant barcode read abundance (log10): 0.136

Sequence: CTTAGGACTTGGGTTCTAACCTGTTGCCT (site CTTAGGACTTG)
- recombinant barcode read abundance (log10): 0.0473

Sequence: CTTCAACCTTGGGTTCTAACCTGTTGCCT (site CTTCAACCTAG)
- recombinant barcode read abundance (log10): 1.75

Sequence: CTTCAACCTTGGGTTCTAACCTGTTGCCT (site CTTCACCCTAG)
- recombinant barcode read abundance (log10): 0.215

Sequence: CTTCAACCTTGGGTTCTAACCTGTTGCCT (site CTTCAGCCTAG)
- recombinant barcode read abundance (log10): 0.0746

Sequence: CTTCAACCTTGGGTTCTAACCTGTTGCCT (site CTTCATCCTAG)
- recombinant barcode read abundance (log10): 0.139

Sequence: CTTCACACTTGGGTTCTAACCTGTTGCAT (site CTTCACACTAT)
- recombinant barcode read abundance (log10): 1.7

Sequence: CTTCACACTTGGGTTCTAACCTGTTGCAT (site CTTCACGCTAG)
- recombinant barcode read abundance (log10): 0.316

Sequence: CTTCAGACTTGGGTTCTAACCTGTTGCTA (site CCTCAGACTTC)
- recombinant barcode read abundance (log10): 0.0983

Sequence: CTTCAGACTTGGGTTCTAACCTGTTGCTA (site CTTCAGACTTA)
- recombinant barcode read abundance (log10): 1.43

Sequence: CTTCATTCTTGGGTTCTAACCTGTTGCCT (site CTTCATTCTAG)
- recombinant barcode read abundance (log10): 0.102

Sequence: CTTCATTCTTGGGTTCTAACCTGTTGCCT (site TGCTGGGCTCA)
- recombinant barcode read abundance (log10): 0.0303

Sequence: CTTCGAGCTTGGGTTCTAACCTGTTGCGG (site CTTCGAGCTCA)
- recombinant barcode read abundance (log10): 0.0538

Sequence: CTTCGAGCTTGGGTTCTAACCTGTTGCGG (site CTTCGAGCTCC)
- recombinant barcode read abundance (log10): 0.98

Sequence: CTTCGAGCTTGGGTTCTAACCTGTTGCGG (site CTTCGAGCTCG)
- recombinant barcode read abundance (log10): 0.027

Sequence: CTTCGAGCTTGGGTTCTAACCTGTTGCGG (site CTTCGAGCTCT)
- recombinant barcode read abundance (log10): 0.658

Sequence: CTTCGTACTTGGGTTCTAACCTGTTGCCA (site CTCCGTACTCG)
- recombinant barcode read abundance (log10): 0.126

Sequence: CTTCGTACTTGGGTTCTAACCTGTTGCCA (site CTTCGTACTTG)
- recombinant barcode read abundance (log10): 0.213

Sequence: CTTCGTCCTTGGGTTCTAACCTGTTGCCT (site CTTCGTCCTAA)
- recombinant barcode read abundance (log10): 0.132

Sequence: CTTCGTCCTTGGGTTCTAACCTGTTGCCT (site CTTCGTCCTAC)
- recombinant barcode read abundance (log10): 0.0309

Sequence: CTTCGTCCTTGGGTTCTAACCTGTTGCCT (site CTTCGTCCTAG)
- recombinant barcode read abundance (log10): 0.804

Sequence: CTTCGTCCTTGGGTTCTAACCTGTTGCCT (site CTTCGTCCTAT)
- recombinant barcode read abundance (log10): 0.0799

Sequence: CTTCGTCCTTGGGTTCTAACCTGTTGCTT (site CTTCGTCCTAA)
- recombinant barcode read abundance (log10): 0.206

Sequence: CTTCGTCCTTGGGTTCTAACCTGTTGCTT (site CTTCGTCCTAC)
- recombinant barcode read abundance (log10): 0.68

Sequence: CTTCGTCCTTGGGTTCTAACCTGTTGCTT (site CTTCGTCCTAG)
- recombinant barcode read abundance (log10): 0.0453

Sequence: CTTCGTCCTTGGGTTCTAACCTGTTGCTT (site CTTCGTCCTAT)
- recombinant barcode read abundance (log10): 0.541

Sequence: CTTGACACTTGGGTTCTAACCTGTTGCCT (site CTAGACACTAG)
- recombinant barcode read abundance (log10): 1.2

Sequence: CTTGACACTTGGGTTCTAACCTGTTGCCT (site CTCGACACTAG)
- recombinant barcode read abundance (log10): 0.401

Sequence: CTTGACACTTGGGTTCTAACCTGTTGCCT (site CTGGACACTAG)
- recombinant barcode read abundance (log10): 0.236

Sequence: CTTGACACTTGGGTTCTAACCTGTTGCCT (site CTTGACACTAG)
- recombinant barcode read abundance (log10): 2.07

Sequence: CTTGGAGCTTGGGTTCTAACCTGTTGCCT (site CTTGGAACTAG)
- recombinant barcode read abundance (log10): 0.365

Sequence: CTTGGAGCTTGGGTTCTAACCTGTTGCCT (site CTTGGACCTAG)
- recombinant barcode read abundance (log10): 0.247

Sequence: CTTGGAGCTTGGGTTCTAACCTGTTGCCT (site CTTGGAGCTAG)
- recombinant barcode read abundance (log10): 1.61

Sequence: CTTGGAGCTTGGGTTCTAACCTGTTGCCT (site CTTGGATCTAG)
- recombinant barcode read abundance (log10): 0.145

Sequence: CTTGGGTCTTGGGTTCTAACCTGTTGCAT (site CTTGGGTCTAT)
- recombinant barcode read abundance (log10): 2.72

Sequence: CTTGGGTCTTGGGTTCTAACCTGTTGCAT (site TCCCATACTTC)
- recombinant barcode read abundance (log10): 0.0573

Sequence: CTTGGTTCTTGGGTTCTAACCTGTTGCTT (site CTGGGTCCTAA)
- recombinant barcode read abundance (log10): 0.0304

Sequence: CTTGGTTCTTGGGTTCTAACCTGTTGCTT (site CTTGGTTCTAA)
- recombinant barcode read abundance (log10): 0.809

Sequence: GAAAACACTTGGGTTCTAACCTGTTGCCT (site GAAAACACTAG)
- recombinant barcode read abundance (log10): 1.18

Sequence: GAAAACACTTGGGTTCTAACCTGTTGCCT (site GAAGAGACTAG)
- recombinant barcode read abundance (log10): 0.0433

Sequence: GAAAAGGCTTGGGTTCTAACCTGTTGCCT (site GAAAAGGCTAG)
- recombinant barcode read abundance (log10): 0.804

Sequence: GAAAAGGCTTGGGTTCTAACCTGTTGCCT (site GAAACGGCTAG)
- recombinant barcode read abundance (log10): 0.105

Sequence: GAAAAGGCTTGGGTTCTAACCTGTTGCCT (site GAAAGGGCTAG)
- recombinant barcode read abundance (log10): 0.0324

Sequence: GAAAAGGCTTGGGTTCTAACCTGTTGCCT (site GAAATGGCTAG)
- recombinant barcode read abundance (log10): 0.206

Sequence: GAAACGTCTTGGGTTCTAACCTGTTGCCT (site GAAACGTCTAG)
- recombinant barcode read abundance (log10): 1.65

Sequence: GAAACGTCTTGGGTTCTAACCTGTTGCCT (site GACAAGTCTAG)
- recombinant barcode read abundance (log10): 0.0765

Sequence: GAAACTCCTTGGGTTCTAACCTGTTGCCT (site GAAAATCCTAG)
- recombinant barcode read abundance (log10): 0.13

Sequence: GAAACTCCTTGGGTTCTAACCTGTTGCCT (site GAAACTCCTAG)
- recombinant barcode read abundance (log10): 0.352

Sequence: GAAACTCCTTGGGTTCTAACCTGTTGCCT (site GAAAGTCCTAG)
- recombinant barcode read abundance (log10): 0.235

Sequence: GAAACTCCTTGGGTTCTAACCTGTTGCCT (site GAAATTCCTAG)
- recombinant barcode read abundance (log10): 0.0462

Sequence: GAAATGACTTGGGTTCTAACCTGTTGCCT (site GAAATGACTAG)
- recombinant barcode read abundance (log10): 0.908

Sequence: GAAATGACTTGGGTTCTAACCTGTTGCCT (site GCAATGACTAG)
- recombinant barcode read abundance (log10): 0.152

Sequence: GAAATGACTTGGGTTCTAACCTGTTGCCT (site GGAATGACTAG)
- recombinant barcode read abundance (log10): 0.066

Sequence: GAAATGACTTGGGTTCTAACCTGTTGCCT (site GTAATGACTAG)
- recombinant barcode read abundance (log10): 0.202

Sequence: GAACCTTCTTGGGTTCTAACCTGTTGCGG (site GAACCTTCTCC)
- recombinant barcode read abundance (log10): 0.93

Sequence: GAACCTTCTTGGGTTCTAACCTGTTGCGG (site TTCTACACTAT)
- recombinant barcode read abundance (log10): 0.0281

Sequence: GAACGACCTTGGGTTCTAACCTGTTGCCT (site AAACGACCTAG)
- recombinant barcode read abundance (log10): 0.331

Sequence: GAACGACCTTGGGTTCTAACCTGTTGCCT (site CAACGACCTAG)
- recombinant barcode read abundance (log10): 0.0122

Sequence: GAACGACCTTGGGTTCTAACCTGTTGCCT (site GAACGACCTAG)
- recombinant barcode read abundance (log10): 0.721

Sequence: GAACGACCTTGGGTTCTAACCTGTTGCCT (site TAACGACCTAG)
- recombinant barcode read abundance (log10): 0.144

Sequence: GAACTCCCTTGGGTTCTAACCTGTTGCGG (site GAACTCCCTCC)
- recombinant barcode read abundance (log10): 0.758

Sequence: GAACTCCCTTGGGTTCTAACCTGTTGCGG (site TGTTGGTCTAA)
- recombinant barcode read abundance (log10): 0.0984

Sequence: GAACTCTCTTGGGTTCTAACCTGTTGCTA (site CCTAAAACTAG)
- recombinant barcode read abundance (log10): 0.0469

Sequence: GAACTCTCTTGGGTTCTAACCTGTTGCTA (site GAACTCTCTTA)
- recombinant barcode read abundance (log10): 1.66

Sequence: GAACTGTCTTGGGTTCTAACCTGTTGCCA (site GAACTGTCTTG)
- recombinant barcode read abundance (log10): 0.995

Sequence: GAACTGTCTTGGGTTCTAACCTGTTGCCA (site GTACTCTCTTG)
- recombinant barcode read abundance (log10): 0.0913

Sequence: GAAGAGCCTTGGGTTCTAACCTGTTGCCT (site GAAGAGCCTAG)
- recombinant barcode read abundance (log10): 2.62

Sequence: GAAGAGCCTTGGGTTCTAACCTGTTGCCT (site GAAGCGCCTAG)
- recombinant barcode read abundance (log10): 0.189

Sequence: GAAGAGCCTTGGGTTCTAACCTGTTGCCT (site GAAGGGCCTAG)
- recombinant barcode read abundance (log10): 0.0404

Sequence: GAAGAGCCTTGGGTTCTAACCTGTTGCCT (site GAAGTGCCTAG)
- recombinant barcode read abundance (log10): 0.0759
